This is an account of results in PubChem BioAssay (NCI).

Structures are written as SMILES.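 Method: 48-hour compound exposure of cells in 96-well plates, five concentrations, linear interpolation of endpoints. At the GI50, growth is halved. TGI is the concentration that stops growth completely.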 Bounds are passed on as bounds.

Common to all, as to test: growth of human tumour cells (NCI), 48 h
Assay [1] relates to HCT-116 colon.
Assay [2] has as its system HOP-62 NSCLC.
In assay [3] the test system is RPMI-8226 leukemia.
In assay [4] the test system is T-47D breast.
Assay [5] deals with A549 NSCLC.
Assay [6] has as its system HS 578T breast.
The subject of assay [7] is MDA-MB-231 breast.
The test system of assay [8] is MDA-MB-435.
Assay [9] relates to NCI-H460 lung.
Assay [10] deals with NCI-H522 lung.
The test system of assay [11] is RXF 393 renal.
Assay [12] has as its system MALME-3M melanoma.
Assay [13] concerns SK-MEL-28 melanoma.

For the molecule `COc1ccc2[nH]c(C(=O)N3CC(CCl)c4c3cc(N)c3ccccc43)cc2c1` (stereo not given), the TGI is 1.09 µM in assay [1], 0.0358 µM in [2], 0.138 µM in [3] and less than 0.0281 µM in assay [4].

For `COc1cc(CCN(C)C)cc(OC)c1OC`, the TGI in [5], in assay [1], in assay [2], in assay [6], in [7] and in assay [8] was greater than 100 µM each time. The TGI in assay [9], in assay [10], in [3], in assay [11] and in assay [4] was greater than 100 µM each time.

Regarding `Clc1ccc(C2CC(c3cccc(Nc4ccncc4)c3)=NN2c2cc(Cl)cc(Cl)c2)cc1` (stereo not given), the GI50 was 1.77 µM in assay [12]; 1.71 µM in assay [8]; 1.97 µM in assay [9]; 1.86 µM in [10]; 1.76 µM in assay [13]. Besides, the TGI in assay [12] came to 3.68 µM; in assay [8] it was 3.16 µM; in assay [9], 4.03 µM; in assay [10], 3.79 µM; in [13], 3.39 µM.
